The record followed here is patent publication US11390631B1, “Benzodiazepine derivatives as RSV inhibitors” (priority 2015, dated 2022).

pEC50: −log10 of the molar value. Where two headings read alike, the source gives them in different places.

The subject of the assay is Human RSV-A (“Long” strain). In words: RSV-A assay: inhibition of cytopathic effect in Hep-2 cells, ATPlite readout. Format: cell-based, Human respiratory syncytial virus (HRSV). The following applies: read-out: Human RSV-A (“Long” strain) EC50. The procedure, abridged: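 Cytopathic-effect protection was read as ATP content (ATPlite luminescence) after a 5-day incubation. Setup: Hep-2 cells at 8,000 per well, RSV-A Long at MOI 0.1, 2-fold serial compound dilutions in duplicate. Cytotoxicity (CC50) was measured on an identical uninfected plate run in parallel.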

Where [1] appears, read: human respiratory syncytial virus, HEp-2, 120 h.
[2] abbreviates: Hep-2 cells, MOI 0.1, 5-day incubation, ATPlite.

In the case of `N#Cc1cnc(-c2nnc(N[C@H]3N=C(c4ccccc4)c4cccc(F)c4NC3=O)o2)c(N2CCOCC2)c1` [Example 361], the pEC50 under setting [1] was over 6.40.
The same measure, in the same setting: in the case of `O=C1Nc2c(Cl)cccc2C(c2ccccc2)=NC1Nc1nnc(-c2ccccc2N2CCOCC2)o1` (stereo not shown) [Example 362] it was under 6.10.
As to `O=C1Nc2ccccc2C(c2ccccc2)=NC1Nc1nnc(-c2ccc(F)cc2)[nH]1` (stereo not shown) [Example 363], the pEC50 under setting [1] was under 6.10.
The same measure, in the same setting: in the case of `N#Cc1ccc(-c2nnc(NC3N=C(c4ccccc4)c4ccccc4NC3=O)[nH]2)cc1` (stereo not shown) [Example 365] it was 6.10 to 6.40; in that of `O=C1Nc2ccccc2C(c2ccccc2)=NC1Nc1nnc(-c2ccncc2)[nH]1` (stereo not shown) [Example 366], under 6.10; in that of `O=C1Nc2ccccc2C(c2ccccc2)=NC1Nc1nnc(-c2ccccc2N2CCOCC2)[nH]1` (stereo not shown) [Example 367], under 6.10.
For the molecule `N#Cc1ccc(-c2cnc(NC3N=C(c4ccccc4)c4ccccc4NC3=O)o2)cc1` (stereo not shown) [Example 368], under setting [1], the pEC50 was 6.10 to 6.40.
On to `O=C1Nc2ccccc2C(c2ccccc2)=NC1Nc1ncc(-c2ccc(F)cc2)o1` (stereo not shown) [Example 369], for which the pEC50 under setting [1] was under 6.10.
As for `O=C1Nc2ccccc2C(c2ccccc2)=NC1Nc1ncc(-c2ccc(Br)cc2)o1` (stereo not shown) [Example 370], the pEC50 under setting [1] is under 6.10.
The same measure, in the same setting: the figure for `O=C1Nc2ccccc2C(c2ccccc2)=NC1Nc1ncc(-c2ccccc2)cn1` (stereo not shown) [Example 371] is under 6.10; for `O=C1Nc2ccccc2C(c2ccccc2)=NC1Nc1nnc(C2CC2)[nH]1` (stereo not shown) [Example 372] it is under 6.10; for `O=C1Nc2ccccc2C(c2ccccc2)=NC1Nc1cnc(-c2ccc(F)cc2)cn1` (stereo not shown) [Example 373] it is under 6.10.
The same measure, in the same setting: in the case of `O=C1Nc2ccccc2C(c2ccccc2)=NC1Nc1ccc(-c2ccc(F)cc2)nn1` (stereo not shown) [Example 374] it was under 6.10; in that of `O=C1Nc2ccccc2C(c2ccccc2)=NC1Nc1ccc(-c2ccncc2)nn1` (stereo not shown) [Example 375], under 6.10.
Same read-out and setting: in the case of `COc1ccc(-c2ccc(NC3N=C(c4ccccc4)c4ccccc4NC3=O)nn2)cc1` (stereo not shown) [Example 376] it was under 6.10; in that of `O=C1Nc2ccccc2C(c2ccccc2)=NC1Nc1ccc(-c2ccccc2N2CCOCC2)nn1` (stereo not shown) [Example 378], under 6.10.
Turning to `O=C1Nc2ccccc2C(c2ccccc2F)=NC1Nc1nnc(-c2ccc(F)cc2)o1` (stereo not shown) [Example 379], the negative-log EC50 (pEC50) under setting [1] is under 6.10.
Still for that read-out and setting: the figure for `O=C1Nc2ccccc2C(c2cccc(F)c2)=NC1Nc1nnc(-c2ccc(F)cc2)o1` (stereo not shown) [Example 380] is 6.10 to 6.40; for `N#Cc1cccc(C2=NC(Nc3nnc(-c4ccc(F)cc4)o3)C(=O)Nc3ccccc32)c1` (stereo not shown) [Example 381] it is under 6.10.
For `O=C1Nc2ccccc2C(c2ccc(F)cc2)=NC1Nc1nnc(-c2ccc(F)cc2)o1` (stereo not shown) [Example 382], the pEC50 under setting [1] is under 6.10.
On the same count and under the same terms, the figure for `O=C1Nc2ccccc2C(c2ccccc2)=N[C@@H]1Nc1nnc(-c2cc(C(F)(F)F)sc2N2CCOCC2)o1` [Example 383] is over 6.40; for `O=C1Nc2ccccc2C(c2ccccc2)=N[C@@H]1Nc1nnc(-c2cc(C3CC3)sc2N2CCOCC2)o1` [Example 384] it is over 6.40.
Turning to `O=C1Nc2ccccc2C(c2ccccc2)=N[C@@H]1Nc1nnc(-c2nc(-c3ccc(F)cn3)sc2N2CCOCC2)o1` [Example 389], the pEC50 under setting [1] is over 6.40.
As to `O=C1Nc2ccccc2C(c2ccccc2)=N[C@@H]1Nc1nnc(-c2nc(-c3ccc(C(F)(F)F)nc3)sc2N2CCOCC2)o1` [Example 390], the negative-log EC50 (pEC50) under setting [1] was over 6.40.
`COC[C@H]1C[C@@H]1c1sc(C(F)(F)F)nc1-c1nnc(N[C@H]2N=C(c3ccccc3)c3ccccc3NC2=O)o1` [Example 395]: under setting [2], the pEC50 is under 6.10.
As to `COCCCc1sc(C(F)(F)F)nc1-c1nnc(N[C@H]2N=C(c3ccccc3)c3ccccc3NC2=O)o1` [Example 396], under setting [1], the pEC50 was under 6.10.
The same measure, in the same setting: the figure for `Cn1cc(-c2nc(-c3nnc(N[C@H]4N=C(c5ccccc5)c5ccccc5NC4=O)o3)c(N3CCOCC3)s2)cn1` [Example 399] is over 6.40.
As for `O=C1Nc2ccccc2C(c2ccccc2)=NC1Nc1nnc(-c2nc(Br)sc2N2CCOCC2)o1` (stereo not shown) [Example 400], the pEC50 under setting [1] is over 6.40.
On the same count and under the same terms, in the case of `CCn1cc(-c2nnc(N[C@H]3N=C(c4ccccc4)c4ccccc4NC3=O)o2)c(N2CCOCC2)n1` [Example 401] it was over 6.40; in that of `COCCn1cc(-c2nnc(N[C@H]3N=C(c4ccccc4)c4ccccc4NC3=O)o2)c(N2CCOCC2)n1` [Example 402], over 6.40; in that of `O=C1Nc2ccccc2C(c2ccccc2)=N[C@@H]1Nc1nnc(-c2oc3ncccc3c2N2CCOCC2)o1` [Example 404], over 6.40.
On the same count and under the same terms, the figure for `O=C1Nc2ccccc2C(c2ccccc2)=N[C@@H]1Nc1nnc(-c2nc(C3CCCCC3)sc2N2CCOCC2)o1` [Example 405] is over 6.40; for `C#Cc1nc(-c2nnc(N[C@H]3N=C(c4ccccc4)c4ccccc4NC3=O)o2)c(N2CCOCC2)s1` [Example 406] it is over 6.40.
For the molecule `COc1ccc2nccc(-c3nnc(N[C@H]4N=C(c5ccccc5)c5ccccc5NC4=O)o3)c2c1` [Example 408], the pEC50 under setting [1] is under 6.10.
Same read-out and setting: the figure for `COCc1ccc2nccc(-c3nnc(N[C@H]4N=C(c5ccccc5)c5ccccc5NC4=O)o3)c2c1` [Example 409] is under 6.10; for `COc1ccn2ncc(-c3nnc(N[C@H]4N=C(c5ccccc5)c5ccccc5NC4=O)o3)c2c1` [Example 410] it is under 6.10; for `COCCc1cccn2ncc(-c3nnc(N[C@H]4N=C(c5ccccc5)c5ccccc5NC4=O)o3)c12` [Example 411] it is under 6.10.
Take `COCCCc1cc(C(F)(F)F)cnc1-c1nnc(N[C@H]2N=C(c3ccccc3)c3ccccc3NC2=O)o1` [Example 413]: the negative-log EC50 (pEC50) under setting [2] was under 6.10.
For the molecule `COCC(C)(C)Nc1cc(C(F)(F)F)cnc1-c1nnc(N[C@H]2N=C(c3ccccc3)c3ccccc3NC2=O)o1` [Example 414], the pEC50 under setting [1] was under 6.10.
The same measure, in the same setting: the figure for `COCC1(Nc2cc(C(F)(F)F)cnc2-c2nnc(N[C@H]3N=C(c4ccccc4)c4ccccc4NC3=O)o2)CC1` [Example 415] is under 6.10; for `COC(C)(C)CNc1cc(C(F)(F)F)cnc1-c1nnc(N[C@H]2N=C(c3ccccc3)c3ccccc3NC2=O)o1` [Example 416] it is under 6.10.
For `O=C1Nc2ccccc2C(c2ccccc2)=N[C@@H]1Nc1nnc(-c2ncc(C(F)(F)F)cc2N[C@H]2CC[C@H]2O)o1` [Example 417], the negative logarithm of the EC50 (pEC50) under setting [2] was under 6.10.
Same read-out and setting: in the case of `O=C1Nc2ccccc2C(c2ccccc2)=N[C@@H]1Nc1nnc(-c2ncc(C(F)(F)F)cc2N[C@@H]2CC[C@@H]2O)o1` [Example 418] it was under 6.10.
As for `O=C1Nc2ccccc2C(c2ccccc2)=N[C@@H]1Nc1nnc(-c2ncc(C(F)(F)F)cc2NC[C@@H]2CCCO2)o1` [Example 419], the pEC50 under setting [1] is 6.10 to 6.40.
With `O=C1Nc2ccccc2C(c2ccccc2)=N[C@@H]1Nc1nnc(-c2ncc(C(F)(F)F)cc2NC[C@H]2CCCO2)o1` [Example 420], the pEC50 under setting [1] was over 6.40.
Still for that read-out and setting: the figure for `O=C1Nc2ccccc2C(c2ccccc2)=N[C@@H]1Nc1nnc(-c2ncc(C(F)(F)F)cc2NCc2ccco2)o1` [Example 421] is under 6.10.
On the same count and under the same terms, in the case of `O=C1Nc2ccccc2C(c2ccccc2)=N[C@@H]1Nc1nnc(-c2ncc(C(F)(F)F)cc2N[C@H]2CCC[C@H]2O)o1` [Example 422] it was 6.10 to 6.40; in that of `O=C1Nc2ccccc2C(c2ccccc2)=N[C@@H]1Nc1nnc(-c2ncc(C(F)(F)F)cc2N[C@@H]2CCC[C@@H]2O)o1` [Example 423], 6.10 to 6.40; in that of `CC1(Nc2cc(C(F)(F)F)cnc2-c2nnc(N[C@H]3N=C(c4ccccc4)c4ccccc4NC3=O)o2)CCOC1` (stereo partly shown) [Example 424], under 6.10.
Consider `O=C1Nc2ccccc2C(c2ccccc2)=N[C@@H]1Nc1nnc(-c2cn(-c3cccnc3)nc2N2CCOCC2)o1` [Example 425], for which, under setting [1], the pEC50 is over 6.40.
Turning to `COCCn1ccc2cccc(-c3nnc(N[C@H]4N=C(c5ccccc5)c5ccccc5NC4=O)o3)c21` [Example 426], the negative-log EC50 (pEC50) under setting [1] is under 6.10.
Consider `O=C1Nc2ccccc2C(c2ccccc2)=N[C@@H]1Nc1nnc(-c2nc(-c3ccccc3F)sc2N2CCOCC2)o1` [Example 427], for which the pEC50 under setting [1] was over 6.40.
Same read-out and setting: the figure for `O=C1Nc2ccccc2C(c2ccccc2)=N[C@@H]1Nc1nnc(-c2nc(-c3ccc(F)cc3)sc2N2CCOCC2)o1` [Example 428] is over 6.40; for `O=C1Nc2ccccc2C(c2ccccc2)=N[C@@H]1Nc1nnc(-c2cn(C3CCC3)nc2N2CCOCC2)o1` [Example 430] it is over 6.40.
The same measure, in the same setting: in the case of `O=C1Nc2ccccc2C(c2ccccc2)=N[C@@H]1Nc1nnc(-c2cn(-c3ccccn3)nc2N2CCOCC2)o1` [Example 431] it was over 6.40; in that of `Cc1cc(-c2nnc(N[C@H]3N=C(c4ccccc4)c4ccccc4NC3=O)o2)n(C2CCOCC2)n1` [Example 432], under 6.10.
Consider `O=C1Nc2ccccc2C(c2ccccc2)=N[C@@H]1Nc1nnc(-c2nc3ccccc3nc2N2CCOCC2)o1` [Example 433], for which the pEC50 under setting [1] is over 6.40.
On the same count and under the same terms, the figure for `O=C1Nc2ccccc2C(c2ccccc2)=N[C@@H]1Nc1nnc(-c2cc3ccccc3nc2N2CCOCC2)o1` [Example 434] is over 6.40.
In the case of `N#Cc1ccc2nccc(-c3nnc(N[C@H]4N=C(c5ccccc5)c5ccccc5NC4=O)o3)c2c1` [Example 435], under setting [1], the negative-log EC50 (pEC50) is under 6.10.
The same measure, in the same setting: in the case of `CO[C@@H]1COC[C@H]1Nc1cc(C(F)(F)F)cnc1-c1nnc(N[C@H]2N=C(c3ccccc3)c3ccccc3NC2=O)o1` [Example 436] it was over 6.40.
Take `CC(C)(O)c1nc(-c2nnc(N[C@H]3N=C(c4ccccc4)c4ccccc4NC3=O)o2)c(N2CCOCC2)s1` [Example 437]: under setting [1], the pEC50 was over 6.40.
The same measure, in the same setting: in the case of `COCCN1CCCn2ncc(-c3nnc(N[C@H]4N=C(c5ccccc5)c5ccccc5NC4=O)o3)c21` [Example 438] it was 6.10 to 6.40; in that of `COC1C2CN(c3cc(C(F)(F)F)cnc3-c3nnc(N[C@H]4N=C(c5ccccc5)c5ccccc5NC4=O)o3)CC21` (stereo partly shown) [Example 439], under 6.10.
The same measure, in the same setting: the figure for `O=C1Nc2ccccc2C(c2ccccc2)=N[C@@H]1Nc1nnc(-c2cn(-c3ccc(C(F)(F)F)cn3)nc2N2CCOCC2)o1` [Example 440] is 6.10 to 6.40.
